According to the supplement of paper PMC12076712:

How the values were obtained:
Assay in all cases: pIC50, competition of probe 3 labelling in live cells
Settings in all cases: cell material: Jurkat cells
MAPK12 = MAPK12 (UniProt P53778)
CDKL5 = molecular target: T1, CDKL5 (UniProt O76039)
T1 sequence (whole entry): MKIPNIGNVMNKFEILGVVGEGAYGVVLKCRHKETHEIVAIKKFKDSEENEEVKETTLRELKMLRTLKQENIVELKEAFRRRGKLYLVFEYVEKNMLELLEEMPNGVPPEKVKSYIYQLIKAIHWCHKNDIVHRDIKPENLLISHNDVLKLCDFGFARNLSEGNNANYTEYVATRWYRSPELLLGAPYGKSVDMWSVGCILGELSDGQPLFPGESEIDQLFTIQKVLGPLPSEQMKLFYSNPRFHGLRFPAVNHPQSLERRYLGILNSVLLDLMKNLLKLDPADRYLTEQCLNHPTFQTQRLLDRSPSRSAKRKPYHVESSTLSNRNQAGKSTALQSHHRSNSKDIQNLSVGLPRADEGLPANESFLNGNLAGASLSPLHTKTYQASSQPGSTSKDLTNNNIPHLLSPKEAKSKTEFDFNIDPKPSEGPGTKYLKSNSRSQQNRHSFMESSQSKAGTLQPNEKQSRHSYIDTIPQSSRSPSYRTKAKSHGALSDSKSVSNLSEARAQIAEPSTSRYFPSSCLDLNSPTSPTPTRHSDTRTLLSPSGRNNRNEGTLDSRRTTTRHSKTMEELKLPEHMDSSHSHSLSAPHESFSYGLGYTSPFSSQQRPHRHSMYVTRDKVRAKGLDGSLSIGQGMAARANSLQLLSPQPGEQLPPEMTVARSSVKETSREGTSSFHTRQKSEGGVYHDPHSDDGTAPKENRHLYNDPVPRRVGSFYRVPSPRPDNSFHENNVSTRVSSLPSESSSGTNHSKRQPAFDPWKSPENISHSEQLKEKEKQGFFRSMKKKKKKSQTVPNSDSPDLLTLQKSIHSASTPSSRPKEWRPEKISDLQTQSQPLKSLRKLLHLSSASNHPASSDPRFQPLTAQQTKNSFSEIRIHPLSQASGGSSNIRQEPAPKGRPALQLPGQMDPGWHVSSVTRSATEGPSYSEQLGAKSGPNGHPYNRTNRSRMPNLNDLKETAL

PAK2 = PAK2 (UniProt Q13177)
Chain of PAK2 (Q13177 whole entry): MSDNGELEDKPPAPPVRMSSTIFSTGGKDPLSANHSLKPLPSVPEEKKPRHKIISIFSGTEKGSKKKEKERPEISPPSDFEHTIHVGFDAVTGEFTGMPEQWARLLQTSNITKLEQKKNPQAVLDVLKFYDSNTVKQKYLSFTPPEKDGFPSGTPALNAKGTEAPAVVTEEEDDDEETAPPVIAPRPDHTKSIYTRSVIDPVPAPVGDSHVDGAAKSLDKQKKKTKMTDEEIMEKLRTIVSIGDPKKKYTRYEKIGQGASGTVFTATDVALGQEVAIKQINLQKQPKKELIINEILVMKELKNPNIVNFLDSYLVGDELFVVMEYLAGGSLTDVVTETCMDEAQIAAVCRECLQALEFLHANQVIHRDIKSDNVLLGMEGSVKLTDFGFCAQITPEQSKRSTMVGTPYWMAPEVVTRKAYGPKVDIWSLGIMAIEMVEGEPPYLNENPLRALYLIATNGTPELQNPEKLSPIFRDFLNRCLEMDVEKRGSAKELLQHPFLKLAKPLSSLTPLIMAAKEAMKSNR

STK33 = STK33 (UniProt Q9BYT3)
Chain of STK33 (Q9BYT3 whole entry, looked up): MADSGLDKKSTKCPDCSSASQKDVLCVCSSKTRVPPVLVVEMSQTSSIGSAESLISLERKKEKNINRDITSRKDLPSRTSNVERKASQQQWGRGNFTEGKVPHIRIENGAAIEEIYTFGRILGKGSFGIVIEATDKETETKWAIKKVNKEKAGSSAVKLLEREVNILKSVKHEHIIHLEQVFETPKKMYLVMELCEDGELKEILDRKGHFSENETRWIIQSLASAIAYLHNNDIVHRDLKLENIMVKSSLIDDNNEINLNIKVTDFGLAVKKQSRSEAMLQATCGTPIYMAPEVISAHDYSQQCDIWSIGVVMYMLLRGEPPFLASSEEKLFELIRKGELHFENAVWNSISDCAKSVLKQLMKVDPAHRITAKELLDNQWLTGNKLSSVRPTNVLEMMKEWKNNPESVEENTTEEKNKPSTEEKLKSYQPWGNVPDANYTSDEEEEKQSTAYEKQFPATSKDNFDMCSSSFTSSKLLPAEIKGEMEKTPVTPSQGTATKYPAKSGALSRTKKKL

NEK9 = molecular target: T2, NEK9 (UniProt Q8TD19)
T2 sequence (whole entry): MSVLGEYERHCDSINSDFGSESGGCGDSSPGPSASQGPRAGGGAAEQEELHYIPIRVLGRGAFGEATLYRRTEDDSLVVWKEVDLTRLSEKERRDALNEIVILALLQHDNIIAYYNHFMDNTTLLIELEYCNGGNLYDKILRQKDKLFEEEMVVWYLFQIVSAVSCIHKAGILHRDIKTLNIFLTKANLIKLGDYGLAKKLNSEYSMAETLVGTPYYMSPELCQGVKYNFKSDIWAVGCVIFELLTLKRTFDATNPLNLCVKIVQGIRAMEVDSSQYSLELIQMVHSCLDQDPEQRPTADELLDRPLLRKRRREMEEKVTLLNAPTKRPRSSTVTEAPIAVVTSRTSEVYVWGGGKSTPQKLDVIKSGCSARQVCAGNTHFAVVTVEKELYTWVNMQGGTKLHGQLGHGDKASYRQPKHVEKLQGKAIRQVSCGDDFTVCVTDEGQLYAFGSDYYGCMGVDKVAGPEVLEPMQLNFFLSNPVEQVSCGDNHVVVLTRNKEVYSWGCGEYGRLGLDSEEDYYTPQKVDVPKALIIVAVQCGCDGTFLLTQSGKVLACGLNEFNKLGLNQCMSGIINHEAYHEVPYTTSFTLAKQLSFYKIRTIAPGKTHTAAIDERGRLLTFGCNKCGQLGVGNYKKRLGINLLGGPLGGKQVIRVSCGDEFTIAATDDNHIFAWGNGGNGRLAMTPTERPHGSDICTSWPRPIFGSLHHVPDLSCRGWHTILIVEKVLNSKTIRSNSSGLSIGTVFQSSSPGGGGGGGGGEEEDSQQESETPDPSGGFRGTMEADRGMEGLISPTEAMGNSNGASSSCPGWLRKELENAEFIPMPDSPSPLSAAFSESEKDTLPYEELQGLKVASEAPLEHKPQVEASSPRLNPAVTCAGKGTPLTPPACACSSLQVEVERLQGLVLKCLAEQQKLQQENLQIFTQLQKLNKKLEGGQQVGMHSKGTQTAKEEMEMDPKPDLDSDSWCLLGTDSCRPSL

STK35 = STK35 (UniProt Q8TDR2)
Chain of STK35 (Q8TDR2 whole entry): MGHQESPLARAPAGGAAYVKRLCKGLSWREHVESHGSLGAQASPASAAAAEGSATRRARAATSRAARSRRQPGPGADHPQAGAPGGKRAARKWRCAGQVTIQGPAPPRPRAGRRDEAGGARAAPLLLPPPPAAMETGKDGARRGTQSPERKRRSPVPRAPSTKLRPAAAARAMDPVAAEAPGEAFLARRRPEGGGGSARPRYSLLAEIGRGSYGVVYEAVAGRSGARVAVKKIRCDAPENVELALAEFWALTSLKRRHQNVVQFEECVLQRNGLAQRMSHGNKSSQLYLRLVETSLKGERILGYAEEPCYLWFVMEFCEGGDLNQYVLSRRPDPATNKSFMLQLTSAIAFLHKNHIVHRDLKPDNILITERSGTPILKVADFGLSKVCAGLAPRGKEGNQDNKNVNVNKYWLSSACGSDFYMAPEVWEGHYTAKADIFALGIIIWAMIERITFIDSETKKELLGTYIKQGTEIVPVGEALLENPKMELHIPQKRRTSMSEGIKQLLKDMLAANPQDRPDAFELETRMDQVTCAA

UniProt Q14289 = molecular target: UniProt Q14289
Chain of UniProt Q14289 (Q14289 whole entry, looked up): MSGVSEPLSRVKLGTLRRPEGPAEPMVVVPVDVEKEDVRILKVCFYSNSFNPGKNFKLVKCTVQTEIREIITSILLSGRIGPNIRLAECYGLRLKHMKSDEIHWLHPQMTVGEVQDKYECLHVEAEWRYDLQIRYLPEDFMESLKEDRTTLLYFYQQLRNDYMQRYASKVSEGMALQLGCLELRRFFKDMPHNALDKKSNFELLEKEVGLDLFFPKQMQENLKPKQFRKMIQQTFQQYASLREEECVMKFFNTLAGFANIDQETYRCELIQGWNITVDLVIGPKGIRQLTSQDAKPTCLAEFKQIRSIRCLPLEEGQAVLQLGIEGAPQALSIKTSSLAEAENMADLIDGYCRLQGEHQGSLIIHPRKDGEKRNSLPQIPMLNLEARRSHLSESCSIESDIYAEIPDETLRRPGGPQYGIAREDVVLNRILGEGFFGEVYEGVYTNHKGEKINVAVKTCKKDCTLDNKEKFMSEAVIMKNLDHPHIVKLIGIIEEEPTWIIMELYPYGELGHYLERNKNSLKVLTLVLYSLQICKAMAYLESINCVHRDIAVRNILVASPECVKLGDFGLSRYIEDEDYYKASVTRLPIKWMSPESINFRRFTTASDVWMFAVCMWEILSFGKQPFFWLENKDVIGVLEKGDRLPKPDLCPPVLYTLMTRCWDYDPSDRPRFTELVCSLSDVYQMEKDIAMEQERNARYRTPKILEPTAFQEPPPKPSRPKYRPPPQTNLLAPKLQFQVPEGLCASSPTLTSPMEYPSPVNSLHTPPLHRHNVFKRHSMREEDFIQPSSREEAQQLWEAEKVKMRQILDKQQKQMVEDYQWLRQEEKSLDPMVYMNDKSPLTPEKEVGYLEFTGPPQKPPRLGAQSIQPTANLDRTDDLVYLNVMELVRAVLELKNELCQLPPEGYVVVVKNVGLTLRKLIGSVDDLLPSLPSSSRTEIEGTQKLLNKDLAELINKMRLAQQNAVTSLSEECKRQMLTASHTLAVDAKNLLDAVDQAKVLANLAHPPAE

LIMK2 = LIMK2 (UniProt P53671)
Chain of LIMK2 (P53671 whole entry, looked up): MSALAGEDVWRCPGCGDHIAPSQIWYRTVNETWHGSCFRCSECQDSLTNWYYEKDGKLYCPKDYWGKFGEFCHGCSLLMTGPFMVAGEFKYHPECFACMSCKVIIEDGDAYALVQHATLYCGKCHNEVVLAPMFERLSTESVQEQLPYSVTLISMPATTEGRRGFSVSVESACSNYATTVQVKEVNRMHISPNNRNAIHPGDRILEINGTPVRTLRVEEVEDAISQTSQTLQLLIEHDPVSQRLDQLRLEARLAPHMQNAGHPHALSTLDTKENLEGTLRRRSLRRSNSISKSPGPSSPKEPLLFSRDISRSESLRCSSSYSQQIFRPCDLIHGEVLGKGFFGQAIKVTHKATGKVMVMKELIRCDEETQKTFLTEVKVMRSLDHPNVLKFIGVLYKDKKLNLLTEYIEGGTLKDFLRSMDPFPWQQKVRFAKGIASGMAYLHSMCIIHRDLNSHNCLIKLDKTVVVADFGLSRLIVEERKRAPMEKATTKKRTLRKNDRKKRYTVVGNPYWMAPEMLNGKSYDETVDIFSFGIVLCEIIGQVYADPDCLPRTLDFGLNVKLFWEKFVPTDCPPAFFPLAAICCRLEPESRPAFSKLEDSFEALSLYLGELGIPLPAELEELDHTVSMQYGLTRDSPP

ITK = molecular target: T3, ITK (UniProt Q08881)
T3 sequence (whole entry): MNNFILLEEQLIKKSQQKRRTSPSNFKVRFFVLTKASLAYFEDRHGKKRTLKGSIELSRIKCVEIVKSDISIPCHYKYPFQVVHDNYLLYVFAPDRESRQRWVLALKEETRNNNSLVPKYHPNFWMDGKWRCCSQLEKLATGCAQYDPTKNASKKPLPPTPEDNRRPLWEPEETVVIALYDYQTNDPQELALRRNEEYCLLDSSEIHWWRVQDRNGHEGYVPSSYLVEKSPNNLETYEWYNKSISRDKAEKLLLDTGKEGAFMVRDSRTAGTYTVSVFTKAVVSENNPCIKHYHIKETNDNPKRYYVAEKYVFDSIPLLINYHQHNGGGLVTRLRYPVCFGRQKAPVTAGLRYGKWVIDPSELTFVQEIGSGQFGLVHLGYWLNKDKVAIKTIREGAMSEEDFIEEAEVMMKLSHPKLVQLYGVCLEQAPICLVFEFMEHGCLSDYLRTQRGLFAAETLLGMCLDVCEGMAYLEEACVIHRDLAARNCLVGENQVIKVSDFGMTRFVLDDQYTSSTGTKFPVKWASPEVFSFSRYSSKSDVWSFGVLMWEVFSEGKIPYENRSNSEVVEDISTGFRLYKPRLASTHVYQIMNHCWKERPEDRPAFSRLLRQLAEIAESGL

UniProt Q9NWV4 = molecular target: UniProt Q9NWV4
Chain of UniProt Q9NWV4 (Q9NWV4 whole entry): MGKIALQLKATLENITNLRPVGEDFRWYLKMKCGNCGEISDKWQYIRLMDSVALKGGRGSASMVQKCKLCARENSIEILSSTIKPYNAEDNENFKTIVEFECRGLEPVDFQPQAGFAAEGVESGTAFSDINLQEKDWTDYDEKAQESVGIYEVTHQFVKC

Chain of MAPK12 (P53778 whole entry): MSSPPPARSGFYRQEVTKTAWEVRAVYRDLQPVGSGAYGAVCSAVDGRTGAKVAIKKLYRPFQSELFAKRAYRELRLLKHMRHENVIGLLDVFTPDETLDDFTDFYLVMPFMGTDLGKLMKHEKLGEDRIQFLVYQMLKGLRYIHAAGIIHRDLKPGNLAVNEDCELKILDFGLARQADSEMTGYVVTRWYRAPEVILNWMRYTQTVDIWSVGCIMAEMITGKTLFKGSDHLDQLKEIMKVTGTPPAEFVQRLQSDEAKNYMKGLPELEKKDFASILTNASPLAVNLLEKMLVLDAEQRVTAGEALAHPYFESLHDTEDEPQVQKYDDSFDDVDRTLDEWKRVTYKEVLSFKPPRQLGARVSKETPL

pIC50 (MAPK12)	pIC50 (CDKL5)	pIC50 (PAK2)	pIC50 (STK33)	pIC50 (STK35)	pIC50 (UniProt Q14289)	pIC50 (LIMK2)	pIC50 (ITK)	pIC50 (UniProt Q9NWV4)	SMILES	pIC50 (NEK9)
4.64	< 4.52	< 4.52	< 4.52	< 4.52	4.62	< 4.52	< 4.52	< 4.52	CC#CC(=O)Nc1ccc2ncnc(Nc3cccc(Br)c3)c2c1 [EKI-785]	< 4.52
< 4.52	6.12	< 4.52	< 4.52	< 4.52	< 4.52	< 4.52	< 4.52	< 4.52	CCc1cnn2c(NCc3ccc[n+]([O-])c3)cc(N3CCCC[C@H]3CCO)nc12 [dinaciclib]	< 4.52
